What all share (format): binding
Assay [1] concerns the target T1, mouse HER2 (23-653) (Mus musculus, UniProt P70424). Nature of the assay: TR-FRET competition assay for peptide potency, mouse HER2. Set-up: mouse HER2 (23-653) using a Cy5 labeled peptide as a probe; made in house; host or cells: mammalian cells. Particulars: 0.1 nM mouse HER2, 24 h incubation. On the technique in general: Time-resolved FRET reads energy transfer from a long-lived donor to a nearby acceptor.

Assay [2] has as its target T2, human HER2 (23-652) (Homo sapiens, UniProt P04626). Nature of the assay: Surface plasmon resonance (SPR) for assessment of peptide affinity, human HER2. Also on record: towards human HER2 (23-652) and mouse HER2 (23-653); made in house. Summed up:
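Binding kinetics fitted from sensorgrams with 280 s peptide association then 3000 s dissociation (30 uL/min), using HER2 (23-652) either directly immobilized (SA/CM5) or anti-Fc-captured; 3 M magnesium chloride used for regeneration.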
(SPR reads the build-up and loss of mass on a sensor chip optically.)

For assay [3], the target named is T1, mouse HER2 (23-653). Put plainly: Surface plasmon resonance (SPR) for assessment of peptide affinity, mouse HER2. Set-up: mouse HER2 (23-653) using a Cy5 labeled peptide as a probe; made in house. An excerpt:
Each protein was immobilized either onto a SA sensorchip (Cytiva, BR-1005-31) or CM5 sensorchip (Cytiva, BR-1005-30) to a density of 800-2000 RU.

The target of assay [4] is T2, human HER2 (23-652). Nature of the assay: TR-FRET competition assay for peptide potency, human HER2. Also on record: towards human HER2 (23-652) and mouse HER2 (23-653); made in house; host or cells: mammalian cells.
The mark [5] stands for this setting: huHER2 TR-FRET IC50, TR-FRET competition with Cy5 labeled peptide probe, 0.1 nM human HER2, 24 h incubation.
The mark [6] stands for this setting: TR-FRET competition with Cy5 labeled peptide probe, read-out: moHER2 TR-FRET IC50.
Setting [7] is: SPR, mouse HER2 extracellular domain, 25° C., 1:1 binding model, read-out: moHER2-SPR-ONC KD.
Setting [8] is: SPR, human HER2 extracellular domain, 25° C., 1:1 binding model, read-out: huHER2-SPR-ONC KD.

SMILES strings stand for the structures. Structures can show the parent of a compound that is named as a salt. Where two headings read alike, the source gives them in different places. Starred links: 1 amine or outer side, 2 acyl side, 3 side chain; linkers in the order of their positions; H or OH if unused. Positions of bridges follow the written chain, without caps; N, C: chain ends. Non-standard residues stand in square brackets, D forms with d. Residues, ends and D or L forms follow the SMILES beside them. Nle(4-yne,6-yl) = O=C([C@H](CC#CC[*:3])N[*:1])[*:2]; Trp(5-OH) = N[C@@H](Cc1c[nH]c2ccc(O)cc12)C(=O)O; NMePhe(4-F) = CN[C@@H](Cc1ccc(F)cc1)C(=O)O; NMehPhe = CN[C@@H](CCc1ccccc1)C(=O)O; X3 = NC[C@H](CCC(=O)[*:2])C(=O)[*:1]; Aad = N[C@@H](CCCC(=O)O)C(=O)O; Gly(cPr) = N[C@H](C(=O)O)C1CC1; NMehCys = CN[C@@H](CCS)C(=O)O; NMeK = CN[C@@H](CCCCN)C(=O)O; NMeDap = CN[C@@H](CN)C(=O)O; NMeC = CN[C@@H](CS)C(=O)O; NMeS = CN[C@@H](CO)C(=O)O; hCys = N[C@@H](CCS)C(=O)O; Dap = NC[C@H](N)C(=O)O; X5 = O=C(C[*:2])[*:1] Where only a bound is given, the exact number is not on record here.

In general, IC50 refers to the midpoint of a concentration-inhibition curve. Usually Kd stands for the free concentration of one partner at which half of the binding sites on the other are occupied at equilibrium, for simple one-to-one binding. For the compound `CN1C(=O)[C@H](CO)NC(=O)[C@H](Cc2ccc(O)cc2)NC(=O)[C@H](CN)CCC(=O)NC[C@@H](C(=O)N(C)[C@@H](Cc2ccc(F)cc2)C(N)=O)N(C)C(=O)[C@H](C2CC2)NC(=O)[C@H](Cc2c[nH]c3ccccc23)NC(=O)[C@H](Cc2c[nH]c3ccc(O)cc23)NC(=O)[C@H](CO)N(C)C(=O)[C@@H]1CCc1ccccc1` [Example A39, (3S,6S,9S,12S,15S,18S,21S,24S,27S)-9-((1H-indol-3-yl)methyl)-N-((S)-1-amino-3-(4-fluorophenyl)-1-oxopropan-2-yl)-27-(aminomethyl)-6-cyclopropyl-12-((5-hydroxy-1H-indol-3-yl)methyl)-24-(4-hydroxybenzyl)-15,21-bis(hydroxymethyl)-N,4,16,19-tetramethyl-5,8,11,14,17,20,23,26,30-nonaoxo-18-phenethyl-1,4,7,10,13,16,19,22,25-nonaazacyclotriacontane-3-carboxamide TFA salt] (YS[NMehPhe][NMeS][Trp(5-OH)]W[Gly(cPr)][NMeDap][NMePhe(4-F)]-NH2; linker N-8 via X3), the IC50 on mouse HER2 (23-653) [1] (moHER2 TR-FRET IC50, TR-FRET competition with Cy5 labeled peptide probe) is 436 nM; on human HER2 (23-652) [4] (setting [5]), 129 nM. The Kd at human HER2 (23-652) [2] turned out to be 148 nM; on mouse HER2 (23-653) [3], 162 nM.
For the compound `CC(=O)NCCCC[C@H]1C(=O)N[C@@H](Cc2c[nH]c3ccc(O)cc23)C(=O)N[C@@H](Cc2c[nH]c3ccccc23)C(=O)N[C@@H](C2CC2)C(=O)N(C)[C@H](C(=O)N(C)[C@@H](Cc2ccc(F)cc2)C(=O)N[C@@H](CCCCN)C(N)=O)CNC(=O)CCC[C@H](NC(C)=O)C(=O)N[C@@H](Cc2ccc(O)cc2)C(=O)N[C@@H](CO)C(=O)N(C)[C@@H](CCc2ccccc2)C(=O)N1C` [Example A40, TFA salt], the IC50 was 0.2 nM on mouse HER2 (23-653) [1] (setting [6]) and less than 0.1 nM on human HER2 (23-652) [4] (setting [5]). Also, the Kd at human HER2 (23-652) [2] and on mouse HER2 (23-653) [3] (setting [7]) was less than 0.1 nM throughout.
In the case of `CC(=O)NCCCC[C@H]1C(=O)N[C@@H](Cc2c[nH]c3ccc(O)cc23)C(=O)N[C@@H](C)C(=O)N[C@@H](C2CC2)C(=O)N(C)[C@H](C(=O)N(C)[C@@H](Cc2ccc(F)cc2)C(=O)N[C@@H](CCCCN)C(N)=O)CNC(=O)CCC[C@H](NC(C)=O)C(=O)N[C@@H](Cc2ccc(O)cc2)C(=O)N[C@@H](CO)C(=O)N(C)[C@@H](CCc2ccccc2)C(=O)N1C` [Example A45, (3S,6S,9S,12S,15S,18S,21S,24S,27S)-27-acetamido-15-(4-acetamidobutyl)-6-cyclopropyl-N-((S)-1-(((S)-1,6-diamino-1-oxohexan-2-y1)amino)-3-(4-fluorophenyl)-1-oxopropan-2-y1)-12-((5-hydroxy-1H-indol-3-yl)methyl)-24-(4-hydroxybenzyl)-21-(hydroxymethyl)-N,4,9,16,19-pentamethyl-5,8,11,14,17,20,23,26,31-nonaoxo-18-phenethyl-1,4,7,10,13,16,19,22,25-nonaazacyclohentriacontane-3-carboxamide TFA salt] (Ac-[Aad]YS[NMehPhe][NMeK](Ac)[Trp(5-OH)]A[Gly(cPr)][NMeDap][NMePhe(4-F)]K-NH2; lactam 1-9), the results for the IC50 on mouse HER2 (23-653) [1] (setting [6]) and on human HER2 (23-652) [4] (read-out: huHER2 TR-FRET IC50) were greater than 1000 nM and greater than 900 nM, respectively. The Kd on human HER2 (23-652) [2] (setting [8]) and at mouse HER2 (23-653) [3] (setting [7]) was greater than 6000 nM in each case.
For `CN1C(=O)[C@H](CO)NC(=O)[C@H](Cc2ccc(O)cc2)NC(=O)[C@@H](N)CC#CCSC[C@@H](C(=O)N(C)[C@@H](Cc2ccc(F)cc2)C(N)=O)N(C)C(=O)[C@H](C2CC2)NC(=O)[C@H](Cc2c[nH]c3ccccc23)NC(=O)[C@H](Cc2c[nH]c3ccc(O)cc23)NC(=O)[C@H](CO)N(C)C(=O)[C@@H]1CCc1ccccc1` [Example A52, (3R,6S,9S,12S,15S,18S,21S,24S,27S)-9-((1H-indol-3-yl)methyl)-27-amino-N—((S)-1-amino-3-(4-fluorophenyl)-1-oxopropan-2-yl)-6-cyclopropyl-12-((5-hydroxy-1H-indol-3-yl)methyl)-24-(4-hydroxybenzyl)-15,21-bis(hydroxymethyl)-N,4,16,19-tetramethyl-5,8,11,14,17,20,23,26-octaoxo-18-phenethyl-1-thia-4,7,10,13,16,19,22,25-octaazacyclohentriacont-29-yne-3-carboxamide TFA salt] (H-[Nle(4-yne,6-yl)]YS[NMehPhe][NMeS][Trp(5-OH)]W[Gly(cPr)][NMeC][NMePhe(4-F)]-NH2; thioether 1-9), the IC50 was greater than 1000 nM at mouse HER2 (23-653) [1] (setting [6]); 427 nM at human HER2 (23-652) [4] (setting [5]); 567 nM on human HER2 (23-652) [4] (huHER2 TR-FRET IC50, recalculated value achieved after further repetition, value in parentheses (**): recalculated after further repetition). Further, the results for the Kd at human HER2 (23-652) [2] and on mouse HER2 (23-653) [3] (setting [7]) were 997 nM and 570 nM, respectively.
Turning to `CN1C(=O)[C@H](CO)NC(=O)[C@H](Cc2ccc(O)cc2)NC(=O)[C@@H](N)CNC(=O)CSC[C@@H](C(=O)N(C)[C@@H](Cc2ccc(F)cc2)C(N)=O)N(C)C(=O)[C@H](C2CC2)NC(=O)[C@H](Cc2c[nH]c3ccccc23)NC(=O)[C@H](Cc2c[nH]c3ccc(O)cc23)NC(=O)[C@H](CO)N(C)C(=O)[C@@H]1CCc1ccccc1` [Example A53, (3R,6S,9S,12S,15S,18S,21S,24S,27S)-9-((1H-indol-3-yl)methyl)-27-amino-N—((S)-1-amino-3-(4-fluorophenyl)-1-oxopropan-2-yl)-6-cyclopropyl-12-((5-hydroxy-1H-indol-3-yl)methyl)-24-(4-hydroxybenzyl)-15,21-bis(hydroxymethyl)-N,4,16,19-tetramethyl-5,8,11,14,17,20,23,26,30-nonaoxo-18-phenethyl-1-thia-4,7,10,13,16,19,22,25,29-nonaazacyclohentriacontane-3-carboxamide TFA salt] (H-[Dap]YS[NMehPhe][NMeS][Trp(5-OH)]W[Gly(cPr)][NMeC][NMePhe(4-F)]-NH2; linker 1-9 via X5), the IC50 on mouse HER2 (23-653) [1] (setting [6]) is 466 nM; at human HER2 (23-652) [4] (setting [5]), 163 nM. The Kd on human HER2 (23-652) [2] is 132 nM; at mouse HER2 (23-653) [3] (setting [7]), 154 nM.
For the compound `CN1C(=O)[C@H](CO)NC(=O)[C@H](Cc2ccc(O)cc2)NC(=O)[C@@H](N)CSSC[C@@H](C(=O)N(C)[C@@H](Cc2ccc(F)cc2)C(N)=O)N(C)C(=O)[C@H](C2CC2)NC(=O)[C@H](Cc2c[nH]c3ccccc23)NC(=O)[C@H](Cc2c[nH]c3ccc(O)cc23)NC(=O)[C@H](CO)N(C)C(=O)[C@@H]1CCc1ccccc1` [Example A54, (4R,7S,10S,13S,16S,19S,22S,25S,28R)-10-((1H-indol-3-yl)methyl)-28-amino-N—((S)-1-amino-3-(4-fluorophenyl)-1-oxopropan-2-yl)-7-cyclopropyl-13-((5-hydroxy-1H-indol-3-yl)methyl)-25-(4-hydroxybenzyl)-16,22-bis(hydroxymethyl)-N,5,17,20-tetramethyl-6,9,12,15,18,21,24,27-octaoxo-19-phenethyl-1,2-dithia-5,8,11,14,17,20,23,26-octaazacyclononacosane-4-carboxamide TFA salt] (H-CYS[NMehPhe][NMeS][Trp(5-OH)]W[Gly(cPr)][NMeC][NMePhe(4-F)]-NH2; disulfide 1-9), the IC50 at mouse HER2 (23-653) [1] (setting [6]) and at human HER2 (23-652) [4] (setting [5]) was greater than 1000 nM throughout. The Kd at human HER2 (23-652) [2] came out at 1710 nM; at mouse HER2 (23-653) [3] (setting [7]), 5310 nM.
Consider `CC(=O)NCCCC[C@H]1C(=O)N[C@@H](Cc2c[nH]c3ccc(O)cc23)C(=O)N[C@@H](Cc2c[nH]c3ccccc23)C(=O)N[C@@H](C2CC2)C(=O)N(C)[C@H](C(=O)N(C)[C@@H](Cc2ccc(F)cc2)C(N)=O)CCSSCC[C@H](N)C(=O)N[C@@H](Cc2ccc(O)cc2)C(=O)N[C@@H](CO)C(=O)N(C)[C@@H](CCc2ccccc2)C(=O)N1C` [Example A55, (5S,8S,11S,14S,17S,20S,23S,26S,29S)-11-((1H-indol-3-yl)methyl)-17-(4-acetamidobutyl)-29-amino-N-((S)-1-amino-3-(4-fluorophenyl)-1-oxopropan-2-y1)-8-cyclopropyl-14-((5-hydroxy-1H-indol-3-yl)methyl)-26-(4-hydroxybenzyl)-23-(hydroxymethyl)-N,6,18,21-tetramethyl-7,10,13,16,19,22,25,28-octaoxo-20-phenethyl-1,2-dithia-6,9,12,15,18,21,24,27-octaazacyclohentriacontane-5-carboxamide TFA salt] (H-[hCys]YS[NMehPhe][NMeK](Ac)[Trp(5-OH)]W[Gly(cPr)][NMehCys][NMePhe(4-F)]-NH2; disulfide 1-9), for which the results for the IC50 at mouse HER2 (23-653) [1] (setting [6]) and on human HER2 (23-652) [4] (read-out: huHER2 TR-FRET IC50) were 287 nM and 97 nM, respectively. Moreover, the results for the Kd at human HER2 (23-652) [2] (setting [8]) and on mouse HER2 (23-653) [3] (setting [7]) were 178 nM and 148 nM, respectively.

Source of the values: patent US20250332300A1 (priority 2024, published 2025).
